According to patent US20240208992A1, “MACROCYCLES AS CFTR MODULATORS” (Idorsia Pharmaceuticals Ltd, priority 2021, published 2024):

Biological target: human F508del-CFTR (Homo sapiens, UniProt P13569, DEL508-508)
Experiment: F508del-CFTR cell surface expression (corrector activity), DiscoveRx ß-galactosidase complementation chemiluminescence assay in recombinant U2OS cell line;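 also: U2OS cells co-expressing ProLink-tagged F508del-CFTR and a membrane-anchored enzyme acceptor, where more surface CFTR restores β-galactosidase activity measured by chemiluminescence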
Details: U2OS cell line, 16h compound incubation; for EC50: EC50, F508del-CFTR cell surface expression, geomean values; for Emax: U2OS, in relation to the Emax of the corrector lumacaftor (=100%), arithmetic mean values

Chain of human F508del-CFTR (P13569 with tags, fused parts or gaps DEL508-508): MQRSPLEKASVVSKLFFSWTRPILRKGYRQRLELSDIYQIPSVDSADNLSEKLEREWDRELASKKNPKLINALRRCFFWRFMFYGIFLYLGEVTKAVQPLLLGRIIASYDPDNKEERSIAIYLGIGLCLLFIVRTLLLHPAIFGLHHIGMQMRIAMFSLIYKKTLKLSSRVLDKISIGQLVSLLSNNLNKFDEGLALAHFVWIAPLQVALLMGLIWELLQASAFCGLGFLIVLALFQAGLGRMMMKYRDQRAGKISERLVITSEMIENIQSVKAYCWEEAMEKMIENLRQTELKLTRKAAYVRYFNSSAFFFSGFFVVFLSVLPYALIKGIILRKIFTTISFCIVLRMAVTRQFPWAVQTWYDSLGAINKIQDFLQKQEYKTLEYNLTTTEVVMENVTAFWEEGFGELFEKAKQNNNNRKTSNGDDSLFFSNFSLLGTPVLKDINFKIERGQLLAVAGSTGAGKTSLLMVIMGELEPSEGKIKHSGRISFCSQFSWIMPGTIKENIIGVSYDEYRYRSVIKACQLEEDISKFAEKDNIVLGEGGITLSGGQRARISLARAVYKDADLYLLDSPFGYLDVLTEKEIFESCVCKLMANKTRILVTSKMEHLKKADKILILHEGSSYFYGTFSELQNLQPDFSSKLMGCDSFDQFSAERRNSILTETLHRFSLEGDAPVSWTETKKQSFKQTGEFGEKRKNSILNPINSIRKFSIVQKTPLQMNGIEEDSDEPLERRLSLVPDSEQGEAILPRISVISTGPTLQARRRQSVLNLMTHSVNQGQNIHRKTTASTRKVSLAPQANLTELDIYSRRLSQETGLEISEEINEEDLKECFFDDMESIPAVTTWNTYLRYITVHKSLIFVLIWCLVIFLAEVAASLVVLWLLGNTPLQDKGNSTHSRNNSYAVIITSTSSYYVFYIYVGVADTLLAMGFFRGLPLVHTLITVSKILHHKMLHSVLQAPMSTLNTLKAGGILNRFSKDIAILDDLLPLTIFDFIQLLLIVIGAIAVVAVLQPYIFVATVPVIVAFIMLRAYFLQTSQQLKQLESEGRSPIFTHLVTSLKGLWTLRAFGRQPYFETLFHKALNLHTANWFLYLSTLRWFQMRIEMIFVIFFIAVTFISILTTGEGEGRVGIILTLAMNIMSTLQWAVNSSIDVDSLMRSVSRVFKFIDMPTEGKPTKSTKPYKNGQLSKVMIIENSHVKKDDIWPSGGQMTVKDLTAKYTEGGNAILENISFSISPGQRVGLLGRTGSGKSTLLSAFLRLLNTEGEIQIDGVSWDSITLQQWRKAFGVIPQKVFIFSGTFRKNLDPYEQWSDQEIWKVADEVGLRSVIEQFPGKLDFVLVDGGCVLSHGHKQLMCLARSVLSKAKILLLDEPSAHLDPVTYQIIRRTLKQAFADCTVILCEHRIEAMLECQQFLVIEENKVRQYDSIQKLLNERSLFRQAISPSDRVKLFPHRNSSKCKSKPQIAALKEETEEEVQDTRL

Compound | EC50 [nM] | Emax [%]
CCOc1cccc(CCNC(=O)[C@@H]2CC(=O)N(C)[C@@H](CC(C)C)C(=O)N(C)CC(=O)N[C@H](Cc3ccccc3)COc3cc4c(cc3C(=O)N2)OCO4)c1 [Example 225, (7R,13S,17S)-7-benzyl-N-(3-ethoxyphenethyl)-13-isobutyl-11,14-dimethyl-9,12,15,19-tetraoxo-6,7,8,9,10,11,12,13,14,15,16,17,18,19-tetradecahydro-[1,3]dioxolo[4′,5′:4,5]benzo[1,2-p][1]oxa[4,7,10,14]tetraazacycloheptadecine-17-carboxamide] | 191 | 110
CC(C)C[C@H]1C(=O)N(C)CC(=O)N[C@H](Cc2ccccc2)COc2cc3c(cc2C(=O)N[C@H](C(=O)NCCc2ccc4c(c2)OCCO4)CC(=O)N1C)OCO3 [Example 226, (7R,13S,17S)-7-benzyl-N-(2-(2,3-dihydrobenzo[b][1,4]dioxin-6-yl)ethyl)-13-isobutyl-11,14-dimethyl-9,12,15,19-tetraoxo-6,7,8,9,10,11,12,13,14,15,16,17,18,19-tetradecahydro-[1,3]dioxolo[4′,5′:4,5]benzo[1,2-p][1]oxa[4,7,10,14]tetraazacycloheptadecine-17-carboxamide] | 520 | 213
CCc1ccc(CCNC(=O)[C@@H]2CC(=O)N(C)[C@@H](CC(C)C)C(=O)N(C)CC(=O)N[C@H](Cc3ccccc3)COc3cc4c(cc3C(=O)N2)OCO4)cc1 [Example 227, (7R,13S,17S)-7-benzyl-N-(4-ethylphenethyl)-13-isobutyl-11,14-dimethyl-9,12,15,19-tetraoxo-6,7,8,9,10,11,12,13,14,15,16,17,18,19-tetradecahydro-[1,3]dioxolo[4′,5′:4,5]benzo[1,2-p][1]oxa[4,7,10,14]tetraazacycloheptadecine-17-carboxamide] | 290 | 103
COc1ccc2c(c1)C(=O)N[C@H](C(=O)NCCc1ccc3c(c1)OCO3)CC(=O)N(C)[C@@H](CC(C)C)C(=O)N(C)CC(=O)N[C@H](Cc1ccccc1)CO2 [Example 228, (3R,9S,13S)-N-(2-(benzo[d][1,3]dioxol-5-yl)ethyl)-3-benzyl-9-isobutyl-17-methoxy-7,10-dimethyl-5,8,11,15-tetraoxo-2,3,4,5,6,7,8,9,10,11,12,13,14,15-tetradecahydrobenzo[p][1]oxa[4,7,10,14]tetraazacycloheptadecine-13-carboxamide] | 460 | 190
Cc1ccc2c(c1)C(=O)N[C@H](C(=O)NCCc1ccc3c(c1)OCO3)CC(=O)N(C)[C@@H](CC(C)C)C(=O)N(C)CC(=O)N[C@H](Cc1ccccc1)CO2 [Example 229, (3R,9S,13S)-N-(2-(benzo[d][1,3]dioxol-5-yl)ethyl)-3-benzyl-9-isobutyl-7,10,17-trimethyl-5,8,11,15-tetraoxo-2,3,4,5,6,7,8,9,10,11,12,13,14,15-tetradecahydrobenzo[p][1]oxa[4,7,10,14]tetraazacycloheptadecine-13-carboxamide] | 279 | 117
COc1cccc(CCNC(=O)[C@@H]2CC(=O)N(C)[C@@H](CC(C)C)C(=O)N(C)CC(=O)N[C@H](Cc3ccccc3)COc3ccc(C)cc3C(=O)N2)c1 [Example 230, (3R,9S,13S)-3-benzyl-9-isobutyl-N-(3-methoxyphenethyl)-7,10,17-trimethyl-5,8,11,15-tetraoxo-2,3,4,5,6,7,8,9,10,11,12,13,14,15-tetradecahydrobenzo[p][1]oxa[4,7,10,14]tetraazacycloheptadecine-13-carboxamide] | 482 | 103
COc1cccc(CCNC(=O)[C@@H]2CC(=O)N(C)[C@@H](CC(C)C)C(=O)N(C)CC(=O)N[C@H](Cc3ccccc3)COc3ccc(OC)cc3C(=O)N2)c1 [Example 231, (3R,9S,13S)-3-benzyl-9-isobutyl-17-methoxy-N-(3-methoxyphenethyl)-7,10-dimethyl-5,8,11,15-tetraoxo-2,3,4,5,6,7,8,9,10,11,12,13,14,15-tetradecahydrobenzo[p][1]oxa[4,7,10,14]tetraazacycloheptadecine-13-carboxamide] | 592 | 173
COc1cccc(CCNC(=O)[C@@H]2CC(=O)N(C)[C@@H](CC(C)C)C(=O)N(C)CC(=O)N[C@H](Cc3ccccc3)COc3cc(OC)ccc3C(=O)N2)c1 [Example 232, (3R,9S,13S)-3-benzyl-9-isobutyl-18-methoxy-N-(3-methoxyphenethyl)-7,10-dimethyl-5,8,11,15-tetraoxo-2,3,4,5,6,7,8,9,10,11,12,13,14,15-tetradecahydrobenzo[p][1]oxa[4,7,10,14]tetraazacycloheptadecine-13-carboxamide] | 526 | 105
COc1cccc(CCNC(=O)[C@@H]2CC(=O)N(C)[C@@H](CC(C)C)C(=O)N(C)CC(=O)N[C@H](Cc3ccccc3)COc3cc(C)ccc3C(=O)N2)c1 [Example 233, (3R,9S,13S)-3-benzyl-9-isobutyl-N-(3-methoxyphenethyl)-7,10,18-trimethyl-5,8,11,15-tetraoxo-2,3,4,5,6,7,8,9,10,11,12,13,14,15-tetradecahydrobenzo[p][1]oxa[4,7,10,14]tetraazacycloheptadecine-13-carboxamide] | 610 | 92
CC(C)C[C@H]1C(=O)N(C)CC(=O)N[C@H](Cc2ccccc2)COc2ccc(F)cc2C(=O)N[C@H](C(=O)NCCc2ccc3c(c2)OCO3)CC(=O)N1C [Example 234, (3R,9S,13S)-N-(2-(benzo[d][1,3]dioxol-5-yl)ethyl)-3-benzyl-17-fluoro-9-isobutyl-7,10-dimethyl-5,8,11,15-tetraoxo-2,3,4,5,6,7,8,9,10,11,12,13,14,15-tetradecahydrobenzo[p][1]oxa[4,7,10,14]tetraazacycloheptadecine-13-carboxamide] | 471 | 110
Cc1cccc2c1C(=O)N[C@H](C(=O)NCCc1ccc3c(c1)OCO3)CC(=O)N(C)[C@@H](CC(C)C)C(=O)N(C)CC(=O)N[C@H](Cc1ccccc1)CO2 [Example 235, (3R,9S,13S)-N-(2-(benzo[d][1,3]dioxol-5-yl)ethyl)-3-benzyl-9-isobutyl-7,10,16-trimethyl-5,8,11,15-tetraoxo-2,3,4,5,6,7,8,9,10,11,12,13,14,15-tetradecahydrobenzo[p][1]oxa[4,7,10,14]tetraazacycloheptadecine-13-carboxamide] | 825 | 117
CC(C)C[C@H]1C(=O)N(C)CC(=O)N[C@H](Cc2ccccc2)COc2cc3ccccc3cc2C(=O)N[C@H](C(=O)NCCc2ccc3c(c2)OCO3)CC(=O)N1C [Example 236, (3R,9S,13S)-N-(2-(benzo[d][1,3]dioxol-5-yl)ethyl)-3-benzyl-9-isobutyl-7,10-dimethyl-5,8,11,15-tetraoxo-2,3,4,5,6,7,8,9,10,11,12,13,14,15-tetradecahydronaphtho[2,3-p][1]oxa[4,7,10,14]tetraazacycloheptadecine-13-carboxamide] | 435 | 126
COc1cccc(CCNC(=O)[C@@H]2CC(=O)N(C)[C@@H](CC(C)C)C(=O)N(C)CC(=O)N[C@H](Cc3ccccc3)COc3ccc(Cl)cc3C(=O)N2)c1 [Example 237, (3R,9S,13S)-3-benzyl-17-chloro-9-isobutyl-N-(3-methoxyphenethyl)-7,10-dimethyl-5,8,11,15-tetraoxo-2,3,4,5,6,7,8,9,10,11,12,13,14,15-tetradecahydrobenzo[p][1]oxa[4,7,10,14]tetraazacycloheptadecine-13-carboxamide] | 300 | 128
COc1cccc(CCNC(=O)[C@@H]2CC(=O)N(C)[C@@H](CC(C)C)C(=O)N(C)CC(=O)N[C@H](Cc3ccccc3)COc3cc4ccccc4cc3C(=O)N2)c1 [Example 238, (3R,9S,13S)-3-benzyl-9-isobutyl-N-(3-methoxyphenethyl)-7,10-dimethyl-5,8,11,15-tetraoxo-2,3,4,5,6,7,8,9,10,11,12,13,14,15-tetradecahydronaphtho[2,3-p][1]oxa[4,7,10,14]tetraazacycloheptadecine-13-carboxamide] | 375 | 153
CCc1ccc(CCNC(=O)[C@@H]2CC(=O)N(C)[C@@H](CC(C)C)C(=O)N(C)CC(=O)N[C@H](Cc3ccccc3)COc3cccc(OC)c3C(=O)N2)cc1 [Example 239, (3R,9S,13S)-3-benzyl-N-(4-ethylphenethyl)-9-isobutyl-16-methoxy-7,10-dimethyl-5,8,11,15-tetraoxo-2,3,4,5,6,7,8,9,10,11,12,13,14,15-tetradecahydrobenzo[p][1]oxa[4,7,10,14]tetraazacycloheptadecine-13-carboxamide] | 514 | 142
COc1cccc(CCNC(=O)[C@@H]2CC(=O)N(C)[C@@H](CC(C)C)C(=O)N(C)CC(=O)N[C@H](Cc3ccccc3)COc3ccsc3C(=O)N2)c1 [Example 240, (6R,12S,16S)-6-benzyl-12-isobutyl-N-(3-methoxyphenethyl)-10,13-dimethyl-8,11,14,18-tetraoxo-5,6,7,8,9,10,11,12,13,14,15,16,17,18-tetradecahydrothieno[2,3-p][1]oxa[4,7,10,14]tetraazacycloheptadecine-16-carboxamide] | 1260 | 77
COc1cccc(CCNC(=O)[C@@H]2CC(=O)N(C)[C@@H](CC(C)C)C(=O)N(C)CC(=O)N[C@H](Cc3ccccc3)COc3nc(C)sc3C(=O)N2)c1 [Example 241, (6R,12S,16S)-6-benzyl-12-isobutyl-N-(3-methoxyphenethyl)-2,10,13-trimethyl-8,11,14,18-tetraoxo-5,6,7,8,9,10,11,12,13,14,15,16,17,18-tetradecahydrothiazolo[5,4-p][1]oxa[4,7,10,14]tetraazacycloheptadecine-16-carboxamide] | 1660 | 92
